The record followed here is patent publication US5089654A, “Chalcone derivatives” (Taisho Pharmaceutical Co., Ltd., priority 1989, dated 1992).

For one assay, the system named is stress ulcer. Put plainly: Stress Ulcer Inhibition Test. It is filed as in vivo, Male Wistar rats. The following applies: Rattus norvegicus, 7 h, oral, Wistar rats, read-out: Inhibition ratio (stress ulcer). The protocol:
Experiment 1 Stress Ulcer Inhibition Test
(§1) The test drugs used were the compounds obtained in the foregoing Examples. Number in test drug column of Table 8 means a compound which is prepared in the correspondingly numbered Example.
Also, symbols A-E in test drug column of Table 8 mean the following compounds used as the control compounds.
The stress ulcer inhibition test was carried out according to a method of K. Takagi et al as described in Japan J. Pharmacol., vol. 18, page 9 (1968).
Male Wistar rats weighing 160 to 180 g (7 animals for each group), after a 24 hour-fast, were given orally the test drug (50 mg/kg and/or 100 mg/kg) suspended in 0.4% CMC, and placed in the stress cage made of a galvanized wire net, which was then immerged into the thermostatic water bath kept on 23° C. until the lower part of the sternum of the animals. Seven hours later, the animals were lapotomized to measure the area of the mucosa produced in the stomach, and the inhibition ration was calculated.

For assay [1], the system named is gastric lesions induced by 0.6 N hydrochloric acid. Description: Gastric Mucosal Protection Test (gastric lesions induced by 0.6 N hydrochloric acid). It is filed as in vivo, Male Wistar rats. The following applies: Rattus norvegicus, oral, Wistar rats, 0.6 N HCl, read-out: Inhibition ratio (lesion index, gastric mucosal protection). On the procedure:
Experiment 2 Gastric Mucosal Protection Test
as §1
Also, symbols A-E in test drug column of Table 9 are as defined in Experiment 1.
The test of protection effect against the gastric lesions induced by 0.6 N hydrochloric acid (gastric mucosal protection effect) was carried out according to a method of A. Robert et al as described in Gastroenterology,vol. 77, pages 433-443 (1979).
Male Wistar rats weighing 180-210 g (7 animals for each group), after a 24 hour-fast, were given orally the test drug (50 mg/kg and/or 100 mg/kg) suspended in 0.4% CMC. After standing at room temperature for 2 hours, 0.6 N hydrochloric acid was given orally in a dose of 1 ml per rat. After standing at room temperature for a further one hour, rats were killed to measure the length of the gastric mucosal lesions induced in the stomachs, and total of the length was designated as the lesion index per rat.
The inhibition ratio (%) was calculated by comparison of the lesion index of the group treated with the test drug with the untreated group.

In a further assay the test system is gastric acid secretion. Description: 2-DG-induced Acid Secretion Test, Gastric Lumen Perfused Rats. It is filed as in vivo. The following applies: intraperitoneal. The protocol: Experiment 3 2-DG-induced Acid Secretion Test Gastric Lumen Perfused Rats
The test was carried out according to the method of K. Watanabe et al in Eur. J. Pharmacology, vol. 90, page 11-17 (1983), and the inhibition ratio of gastric acid secretion of the test drug was calculated.
Number and symbol in test drug column are as defined above.
The test drug was given intraperitoneally.

Turning to `CC(C)=CCOc1ccc(C(=O)/C=C/c2ccc(C(=O)O)cc2)c(OCC(=O)O)c1` [A, 4-carboxy-2'-carboxymethoxy-4'-(3-methyl-2-butenyloxy)chalcone, reference compound], the inhibition in vivo at 50 mg/kg (in the assay with stress ulcer; in assay [1]) was under 10% each time.

`CC(C)=CCOc1ccc(C(=O)/C=C/c2ccc(OCC(=O)O)cc2)c(OCC(=O)O)c1` [B, 2',4-bis(carboxymethoxy)-4'-(3-methyl-2-butenyloxy)chalcone, reference compound]: the inhibition in vivo at 50 mg/kg (in the assay on stress ulcer; in assay [1]) was under 10% in each case.

As to `CC(C)=CCOc1ccc(/C=C/C(=O)c2ccc(OCC=C(C)C)cc2OCC(=O)O)cc1` [C, 2'-carboxymethoxy-4,4'-bis(3-methyl-2-butenyloxy)chalcone, reference compound], the inhibition in vivo at 50 mg/kg (in the assay with stress ulcer; in assay [1]) was under 10% throughout. Further, the “Inhibition ratio of gastric acid secretion” value with gastric acid secretion (200 mg/kg) is given as 35.2%.

Turning to `CC(C)=CCOc1ccc(C(=O)/C=C/c2ccc(C)cc2)c(OCC(=O)O)c1` [D, 2'-carboxymethoxy-4-methyl-4'-(3-methyl-2-butenyloxy)chalcone, reference compound], in the assay on stress ulcer, the inhibition in vivo at 50 mg/kg is under 10% and the inhibition in vivo at 100 mg/kg was determined as 26.2%. In addition, the inhibition in vivo at 50 mg/kg in assay [1] was under 10%.

On to `CCCc1ccc(/C=C/C(=O)c2ccc(OCC=C(C)C)cc2OCC(=O)O)cc1` [E, 2'-carboxymethoxy-4'-(3-methyl-2-butenyloxy)-4-n-propylchalcone, reference compound], for which, in the assay with stress ulcer, the inhibition in vivo at 50 mg/kg is 33.7% and the inhibition in vivo at 100 mg/kg was 57.1%. Also, in assay [1], the inhibition in vivo at 50 mg/kg is 24.8%.

Consider `CCCCCCCc1ccc(/C=C/C(=O)c2ccc(OCC=C(C)C)cc2OCC(=O)OCC)cc1` [Example 18], for which, in assay [1], the inhibition in vivo at 50 mg/kg turned out to be 37.6% and the inhibition in vivo at 100 mg/kg is 53.8%.

Regarding `CCC(C)c1ccc(/C=C/C(=O)c2ccc(OCC=C(C)C)cc2OCC(=O)O)cc1` (centres unmarked) [Example 24], the inhibition in vivo at 50 mg/kg in the assay with stress ulcer was determined as 70.5%.

For `CCCCc1ccc(/C=C/C(=O)c2ccc(OCC=C(C)C)cc2OCC(=O)O)cc1` [Example 25], in the assay with stress ulcer, the inhibition in vivo at 50 mg/kg was determined as 61% and the inhibition in vivo at 100 mg/kg turned out to be 63%.

`CCCCCc1ccc(/C=C/C(=O)c2ccc(OCC=C(C)C)cc2OCC(=O)O)cc1` [Example 27]: the inhibition in vivo at 50 mg/kg in the assay with stress ulcer was found to be 86.3%.

In the case of `CC(C)=CCOc1ccc(C(=O)/C=C/c2ccc(CCC(C)C)cc2)c(OCC(=O)O)c1` [Example 28], in the assay with stress ulcer, the inhibition in vivo at 50 mg/kg is 89%.

Take `CCCCCCc1ccc(/C=C/C(=O)c2ccc(OCC=C(C)C)cc2OCC(=O)O)cc1` [Example 29, 2'-carboxymethoxy-4-n-hexyl-4'-(3-methyl-2-butenyloxy)chalcone]: the inhibition in vivo at 50 mg/kg in the assay on stress ulcer worked out at 67.3%. Further, in assay [1], the inhibition in vivo at 50 mg/kg stood at 81.2% and the inhibition in vivo at 100 mg/kg amounted to 83.7%.

With `CCCCCCCc1ccc(/C=C/C(=O)c2ccc(OCC=C(C)C)cc2OCC(=O)O)cc1` [Example 30, 2'-carboxymethoxy-4-n-heptyl-4'-(3-methyl-2-butenyloxy)chalcone], in the assay with stress ulcer, the inhibition in vivo at 50 mg/kg turned out to be 91.8%. Further, in assay [1], the inhibition in vivo at 50 mg/kg turned out to be 83.8% and the inhibition in vivo at 100 mg/kg stood at 94.4%.

With `CCCCCCCCc1ccc(/C=C/C(=O)c2ccc(OCC=C(C)C)cc2OCC(=O)O)cc1` [Example 31], the inhibition in vivo at 50 mg/kg with stress ulcer came out at 77.2%.

Consider `CCCCCCCCCCCCCCCc1ccccc1/C=C/C(=O)c1ccc(OCC=C(C)C)cc1OCC(=O)O` [Example 36], for which the inhibition in vivo at 50 mg/kg in the assay on stress ulcer stood at 48.7%.

On to `CC(C)=CCOc1ccc(C(=O)/C=C/c2ccc(C(C)(C)C)cc2)c(OCC(=O)O)c1` [Example 44, 4-t-butyl-2'-carboxymethoxy-4'-(3-methyl-2-butenyloxy)chalcone], for which the figures for the inhibition in vivo at 50 mg/kg (with stress ulcer; in assay [1]) were 76% and 61.9%, respectively. For the same compound, the results for the inhibition in vivo at 100 mg/kg (in the assay on stress ulcer; in assay [1]) were 84.2% and 82.8%, respectively. In addition, the “Inhibition ratio of gastric acid secretion” value is given as 54.3% with gastric acid secretion (30 mg/kg) and 66.8% in the assay on gastric acid secretion (100 mg/kg).

With `CC(C)=CCOc1ccc(C(=O)/C=C/c2ccc(C(C)(C)C)cc2)c(OC(C)C(=O)O)c1` (centres unmarked) [Example 45, 4-(t-butyl)-2'-(1-carboxethoxy)-4'-(3-methyl-2-butenyloxy)chalcone], the inhibition in vivo at 50 mg/kg with stress ulcer came out at 50.4%.

With `CCCCCCc1ccc(/C=C/C(=O)c2ccc(OCC=C(C)C)cc2OC(C)C(=O)O)cc1` (centres unmarked) [Example 46], in the assay on stress ulcer, the inhibition in vivo at 50 mg/kg turned out to be 63%.

In the case of `CC(C)=CCOc1ccc(C(=O)/C=C/c2ccc(C(C)(C)C)cc2)c(OCCCC(=O)O)c1` [Example 48], the inhibition in vivo at 100 mg/kg with stress ulcer is 72%.

Regarding `CCCCCC/C=C/c1ccc(/C=C/C(=O)c2ccc(OCC=C(C)C)cc2OCC(=O)O)cc1` [Example 49, 2'-carboxymethoxy-4'-(3-methyl-2-butenyloxy)-4-(1-(E)-octenyl)chalcone], the inhibition in vivo at 50 mg/kg in the assay with stress ulcer was 76.6%.

In the case of `CCCC/C=C/c1ccc(/C=C/C(=O)c2ccc(OCC=C(C)C)cc2OCC(=O)O)cc1` [Example 51], the inhibition in vivo at 50 mg/kg with stress ulcer was 93.3%.

Turning to `CCCCC/C=C/c1ccc(/C=C/C(=O)c2ccc(OCC=C(C)C)cc2OCC(=O)O)cc1` [Example 52], the inhibition in vivo at 50 mg/kg in the assay with stress ulcer came out at 93.4%.

With `C=CCCc1ccc(/C=C/C(=O)c2ccc(OCC=C(C)C)cc2OCC(=O)O)cc1` [Example 54], in the assay on stress ulcer, the inhibition in vivo at 50 mg/kg was 56.9%.
